These results are taken from paper PMC6540015, “New Quinolone-Based Thiosemicarbazones Showing Activity Against Plasmodium falciparum and Mycobacterium tuberculosis” (Molecules, 2019).

Structures are written as SMILES. In brackets after ≈: the same amount, converted by molar mass. Like-named read-outs stand apart in the source and are kept apart here.

For orientation: IC50 means the concentration needed to halve the response being measured. What is called melting point is the temperature of the solid-liquid transition.

For series [1], the system named is 3D7 strain of Plasmodium falciparum. As to the kind of experiment: In vitro anti-plasmodial pLDH assay. Type of series: cell-based.
Series [2] concerns M. tuberculosis H37Rv strain. Nature of the series: microbe, parasite or virus in culture. Type of series: cell-based. The following applies: Mycobacterium tuberculosis, concentration inhibiting 90% of bacterial population; for MIC: read-out: MIC90 H37Rv.
Setting [3] is: Plasmodium falciparum, chloroquine sensitive strain 3D7 of P. falciparum, 48 h, na = not active, read-out: IC50 Pf 3D7.
Where [4] appears, read: Plasmodium falciparum, 3D7, 48 h, read-out: IC50 Pf 3D7, chloroquine sensitive strain 3D7 of P. falciparum, na = not active.

On to `CCN(CC)CCCC(C)Nc1ccnc2cc(Cl)ccc12` (stereo not drawn) [CQ, Chloroquine, reference compound], for which the IC50 in series [1] (setting [3]) stood at 0.012 µM.

For the molecule `CCOC(=O)c1c[nH]c2ccc(C(C)=O)cc2c1=O` [Compound 8], in series [1] (setting [3]), the IC50 is 4 µM.

The molecule `CCn1cc(C(=O)NCCCn2ccnc2)c(=O)c2cc(/C(C)=N/NC(N)=S)ccc21` [Compound 11, (E)-N-(3-(1H-imidazol-1-yl)propyl)-6-(1-(2-carbamothioylhydrazono)ethyl)-1-ethyl-4-oxo-1,4-dihydroquinolone-3-carboxamide] gave a melting point of 187 to 189 °C. Further, in series [2], the MIC90 was greater than 125 µM and the MIC was greater than 125 µM. For the same molecule, the IC50 in series [1] (setting [3]) amounted to 3.7 µM.

`CCn1cc(C(=O)NCCNCCO)c(=O)c2cc(/C(C)=N/NC(N)=S)ccc21` [Compound 12, (E)-6-(1-(2-carbamothioylhydrazono)ethyl)-1-ethyl-N-(2-((2-hydroxyethyl)amino)ethyl)-4-oxo-1,4-dihydroquinolone-3-carboxamide] displayed a melting point of 183 to 185 °C. In addition, in series [2], the MIC90 is 73.4 µM (≈ 30.7 µg/mL) and the MIC was determined as 73.4 µM (≈ 30.7 µg/mL). The “IC50 Pf 3D7” value in series [1] (chloroquine sensitive strain 3D7 of P. falciparum, 48 h, na = not active) is reported as “not active”.

Molecule `C/C(=N\NC(N)=S)c1ccc2c(c1)c(=O)c(C(=O)NCCNCCO)cn2Cc1ccccc1` [Compound 13, (E)-1-benzyl-6-(1-(2-carbamothioylhydrazono)ethyl)-N-(2-((2-hydroxyethyl)amino)ethyl)-4-oxo-1,4-dihydroquinolone-3-carboxamide] displayed a melting point of 197 to 199 °C. In addition, in series [2], the MIC90 was determined as 2.7 µM (≈ 1.3 µg/mL) and the MIC came to 2.7 µM (≈ 1.3 µg/mL). Also, in series [1] (setting [4]), the half-inhibitory concentration (IC50) was found to be 4.1 µM.

Molecule `C/C(=N\NC(N)=S)c1ccc2c(c1)c(=O)c(C(=O)NCCNCCO)cn2Cc1ccc(Br)cc1` [Compound 14, (E)-1-(4-bromobenzyl)-6-(1-(2-carbamothioylhydrazono)ethyl)-N-(2-((2-hydroxyethyl)amino)ethyl)-4-oxo-1,4-dihydroquinolone-3-carboxamide] showed a melting point of 200 to 202 °C. For the same molecule, in series [2], the MIC90 came out at 10.3 µM (≈ 5.76 µg/mL) and the MIC worked out at 10.3 µM (≈ 5.76 µg/mL). The IC50 in series [1] (setting [4]) amounted to 4 µM. Besides, in series [1] (read-out: IC50 Pf 3D7, chloroquine sensitive strain 3D7 of P. falciparum, 48 h, na = not active), the half-maximal inhibitory concentration (IC50) stood at 4.7 µM.

In turn, `C/C(=N\NC(N)=S)c1ccc2c(c1)c(=O)c(C(=O)NCCNCCO)cn2Cc1ccc(C(F)(F)F)cc1` [Compound 15, (E)-6-(1-(2-carbamothioylhydrazono)ethyl)-N-(2-((2-hydroxyethyl)amino)ethyl)-4-oxo-1-(4-(trifluoromethyl)benzyl)-1,4-dihydroquinolone-3-carboxamide] yielded a melting point of 199 to 201 °C. Besides, in series [2], the MIC90 was 2 µM (≈ 1.1 µg/mL). Also, the 50% inhibitory concentration (IC50) in series [1] (setting [4]) was determined as 1.2 µM.

The molecule `C/C(=N\NC(N)=S)c1ccc2c(c1)c(=O)c(C(=O)NCCNCCO)cn2Cc1ccc(Cl)cc1Cl` [Compound 16, (E)-6-(1-(2-carbamothioylhydrazono)ethyl)-1-(2,4-dichlorobenzyl)-N-(2-((2-hydroxyethyl)amino)ethyl)-4-oxo-1,4-dihydroquinolone-3-carboxamide] returned a melting point of 205 to 207 °C. For the same molecule, in series [2], the MIC90 worked out at 4.8 µM (≈ 2.64 µg/mL) and the MIC worked out at 4.8 µM (≈ 2.64 µg/mL). Besides, the half-maximal inhibitory concentration (IC50) in series [1] (setting [4]) turned out to be 3.1 µM.

Regarding `COCCNC(=O)c1cn(Cc2ccccc2)c2ccc(/C(C)=N/NC(N)=S)cc2c1=O` [Compound 17, (E)-1-benzyl-6-(1-(2-carbamothioylhydrazono)ethyl)-N-(2-methoxyethyl)-4-oxo-1,4-dihydroquinolone-3-carboxamide], the melting point lay in the range of 199 to 200 °C. In series [2], the MIC90 turned out to be 44.2 µM (≈ 20 µg/mL) and the MIC turned out to be 44.2 µM (≈ 20 µg/mL). The IC50 in series [1] (setting [4]) amounted to 24.6 µM.

In the case of `COCCNC(=O)c1cn(Cc2ccc(Br)cc2)c2ccc(/C(C)=N/NC(N)=S)cc2c1=O` [Compound 18, (E)-1-(4-bromobenzyl)-6-(1-(2-carbamothioylhydrazono)ethyl)-N-(2-methoxyethyl)-4-oxo-1,4-dihydroquinolone-3-carboxamide], the melting point lay within 204 to 206 °C. This molecule displayed an MIC90 in series [2] of 15 µM (≈ 7.96 µg/mL). In addition, in series [1] (setting [4]), the concentration for half-maximal inhibition (IC50) amounted to 9.9 µM.

Consider `COCCNC(=O)c1cn(Cc2ccc(Cl)cc2Cl)c2ccc(/C(C)=N/NC(N)=S)cc2c1=O` [Compound 19, (E)-6-(1-(2-carbamothioylhydrazono)ethyl)-1-(2,4-dichlorobenzyl)-N-(2-methoxyethyl)-4-oxo-1,4-dihydroquinolone-3-carboxamide], for which the melting point lay within 209 to 211 °C. The molecule further returned an MIC90 in series [2] of 10.2 µM (≈ 5.31 µg/mL).

For the molecule `CCOC(=O)c1cn(Cc2ccc(Cl)cc2Cl)c2ccc(/C(C)=N/NC(N)=S)cc2c1=O` [Compound 21, Ethyl-(E)-6-(1-(2-carbamothioylhydrazono)ethyl)-1-(2,4-dichlorobenzyl)-4-oxo-1,4-dihydroquinolone-3-carboxylate], the melting point lay in the range of 211 to 213 °C. Also, in series [2], the MIC90 amounted to 31.6 µM (≈ 15.5 µg/mL) and the MIC turned out to be 31.6 µM (≈ 15.5 µg/mL).

Regarding `CO[C@H]1/C=C/O[C@@]2(C)Oc3c(C)c(O)c4c(O)c(c(/C=N/N5CCN(C)CC5)c(O)c4c3C2=O)NC(=O)/C(C)=C\C=C\[C@H](C)[C@H](O)[C@@H](C)[C@@H](O)[C@@H](C)[C@H](OC(C)=O)[C@@H]1C` [RF, Rifampicin, reference compound], in series [2], the MIC90 came out at 0.062 µM (≈ 0.051 µg/mL).
